Laboratory results reported in paper PMC12029662, “Cytotoxicity Comparison of ^99mTc-Labeled Peptide Antagonist and Agonist Targeting the SSTR2 Receptor in AR42J Cells” (Molecules, 2025).
Like-named read-outs stand apart in the source and are kept apart here. Positions of bridges follow the written chain, without caps; N, C: chain ends. Non-standard residues stand in square brackets, D forms with d. dPhe(4-NHCONH2) = NC(=O)Nc1ccc(C[C@@H](N)C(=O)O)cc1; Phe(4-Cl) = N[C@@H](Cc1ccc(Cl)cc1)C(=O)O; N4 = N4 chelator for 99mTc

Tests used:
SSTR2 = target: T1, SSTR2 (Rattus norvegicus, UniProt P30680); test: Saturation binding affinity assay on AR-42-J cells; settings: for Specific binding on AR42J cells, antagonist compared with agonist: specific = total minus nonspecific binding, Figure 2
T1 construct: AR-42-J cells were seeded in 6-well plates; host or cells: AR-42-J (AR42J) rat pancreatic tumour cells, intact, no transfection described
Method: Figure 2 illustrates the relationship between specific binding and the concentration of the radioconjugates. In Supplementary Materials Figure S1, we included experimental data on total binding and non-specific binding in the presence of a 2000-fold excess of octreotide, which allowed us to determine specific binding.
Following incubation, the cells were washed with PBS, collected into tubes and then lysed twice using 800 μL of 1 M NaOH (for 12-well plate) and 1.5 mL of 1 M NaOH (for 6-well plates). The lysates were collected in separate tubes and radioactivity was measured using Wizard2 gamma counter, PerkinElmer, Waltham, MA, USA. The lysates were transferred to separate tubes and radioactivity was quantified using Wizard2 gamma counter.

AR42J cells [1] = test: Cytotoxicity studies (MTS assay)
Excerpt: The properties of agonist octreotide conjugates labeled with the radionuclide ^111In have been studied in several works, primarily for imaging but also for Auger electron therapy. The ^111In not only emits gamma quanta but also produces 7.4 Auger electrons. […] In a few works, Maecke et al. also studied ^111In radioconjugates with SSTR receptor antagonists, but these studies were focused on tumor imaging and the therapeutic effect was not investigated. […] They are easily repairable and the cells could continue to divide.
Figure 4 Cytotoxicity of ^99mTc-labeled SSTR2 receptor agonist TEKTROTYD (left graph) and antagonist TECANT-1 (right graph) for AR42J cells. The data results are expressed in mean ± standard deviation. One-way ANOVA analysis was used for multiple group comparisons, followed by Tukey’s test.
A cytotoxicity assay was performed using the AR42J cell line. A total of 10^4 cells were seeded in 96-well plate and incubated overnight at 37 °C in a 5% CO2 atmosphere. The following day, the medium was removed and the cells were treated with radiocompounds at concentrations of 100, 50, 25, 12.5 MBq/mL The cells were then incubated for 24, 48, and 72 h. At each specified time point, 20 µL of MTS reagent was added to cells and incubated for 2 h. Absorbance at 490 nm was measured to estimate the percentage of cell metabolic activity. […] The average absorbance of these control wells was subtracted from the absorbance of wells containing treated cells.

[2] = reported in multiple studies; cited from earlier work
AR42J cells [3] = test: Internalization assay (membrane-bound vs internalized fraction); format: cell-based, rat; settings: Figure 3
Method: Briefly, AR42J cells (7 × 10^5 cells/well) were seeded in 6-well plates and incubated for 2 days. Following this incubation, the cells were washed twice with cold PBS and then treated with 5 nM of tested compounds. To avoid internalization, the cells were incubated at 4 °C for 1 h. Non-specific binding was assessed by adding a 1000-fold molar excess of unlabeled octreotide acetate. After incubation, unbound fraction was collected in tubes, and the cells were washed twice with 1 mL of cold PBS. Fresh medium was then added, and the cells were incubated at 37 °C for up to 24 h. At each time interval, the second medium portion was collected, and cells were washed twice with 1 mL of PBS. Next, the membrane-bound fraction was collected using 0.05 M glycine–HCl buffer (pH 2.8). Finally, the internalized fraction was obtained by lysing the cells with 1.5 mL of 1 M NaOH.

[4] = AR42J cells, MTS, 12.5–100 MBq/mL, Figure 4

T1 sequence (P30680 whole entry): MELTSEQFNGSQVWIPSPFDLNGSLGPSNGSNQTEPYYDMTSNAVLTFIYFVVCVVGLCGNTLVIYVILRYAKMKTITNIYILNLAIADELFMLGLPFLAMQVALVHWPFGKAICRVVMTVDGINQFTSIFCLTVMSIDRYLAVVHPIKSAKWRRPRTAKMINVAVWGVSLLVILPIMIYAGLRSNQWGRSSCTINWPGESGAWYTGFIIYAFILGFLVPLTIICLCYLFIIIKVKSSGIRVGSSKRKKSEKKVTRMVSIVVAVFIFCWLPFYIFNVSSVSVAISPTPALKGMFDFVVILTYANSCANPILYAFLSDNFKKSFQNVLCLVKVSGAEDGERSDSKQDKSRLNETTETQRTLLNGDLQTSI

Substance: N4-p-Cl-Phe-cyclo(D-Cys-Tyr-DAph(Cbm)-Lys-Thr-Cys)-D-Tyr-NH2 (disulfide) [TECANT-1]
- Specific binding on AR42J cells, antagonist compared with agonist (SSTR2): significantly greater
- Cell viability after 72 h compared with earlier time points (AR42J cells [1]; [4]): no such effect was observed

Substance: ^99mTc-EDDA/HYNIC-3Tyr-octreotide (disulfide) [^99mTc-TEKTROTYD]
- Stability in biological fluids, including human serum [2]: high stability
- Cytotoxicity in words (AR42J cells [1]; AR42J cells, MTS assay): slight cytotoxicity
- Cell viability after 72 h compared with earlier time points (AR42J cells [1]; [4]): significant increase in cell viability observed after 72 h

Substance: ^99mTc-N4-p-Cl-Phe-cyclo(D-Cys-Tyr-D-4-amino-Phe(carbamoyl)-Lys-Thr-Cys)D-Tyr- NH2 (disulfide) ({99mTc-N4}-[Phe(4-Cl)][dC]Y[dPhe(4-NHCONH2)]KTC[dY]-NH2; disulfide 2-7; also: 99mTc complex via N4 chelator) [^99mTc-TECANT-1]
- Kd (SSTR2; saturation curves, AR42J cells, 2 h incubation with 0.004–20 nM radiopeptide, non-specific binding with 2000-fold excess of octreotide, gamma counter): 1.5 nM

Substance: ^99mTc-N4-p-Cl-Phe-cyclo(D-Cys-Tyr-D-4-amino-Phe(carbamoyl)-Lys-Thr-Cys)D-Tyr- NH2 (disulfide) [^99mTc-TECANT-1]
- Specific binding on AR42J cells, antagonist compared with agonist (SSTR2): greater binding
- Cytotoxicity in words (AR42J cells [1]): significantly enhanced cytotoxic effect
- Toxicity of antagonist relative to agonist (AR42J cells [1]; AR42J cells, MTS, 12.5–100 MBq/mL, 24, 48, 72 h, Figure 4): two to three times higher
- Cellular localization in words (AR42J cells [3]): most of the radioconjugate is accumulated in the cell membrane
